Where a SMILES comes first, the peptide text is derived from it. [ ]: non-standard residue; d: D form. ξ: configuration not given here. ξGly(dodecyl) = CCCCCCCCCCCCC(N)C(=O)O; ξGly(decyl) = CCCCCCCCCCC(N)C(=O)O; ξGly(octyl) = CCCCCCCCC(N)C(=O)O; ξAoc(2) = CCCCCCC(N)C(=O)O
Assays:
[1] = Apparent permeability across human Caco-2 cells; assay type: ADME, cell-based
Caco-2 [2] = assay: Stability in human Caco-2 homogenates after 20 mins; assay type: ADME; settings: caco-2, 20 min
[3] = Stability in human Caco-2 homogenates after 2 hrs; assay type: ADME; settings: Caco-2 cell homogenates, read-out: Stability
Caco-2 [4] = assay: Stability in human Caco-2 homogenates after 10 mins; assay type: ADME; settings: caco-2, 10 min
[5] = Stability in human Caco-2 homogenates after 1 hr; assay type: ADME; settings: Caco-2 cell homogenates, read-out: Stability

| Structure (SMILES) | Papp [1] | Activity (Caco-2 [2]) | remaining at 2 h [3] | Stability (Caco-2 [4]) | remaining at 1 h [5] |
| --- | --- | --- | --- | --- | --- |
| CCCCCCCCCCCCC(N)C(=O)NC(CCCCCCCCCCCC)C(=O)N[C@@H](CCC(=O)O)C(=O)N[C@@H](Cc1c[nH]c2ccccc12)C(N)=O (some centres not stated) (H-[ξGly(dodecyl)][ξGly(dodecyl)]EW-NH2) | 2.77 ×10⁻⁶ cm/s | Not Active | 90% |  |  |
| CCCCCCCCC(NC(=O)[C@@H](N)CCC(=O)O)C(=O)N[C@@H](Cc1c[nH]c2ccccc12)C(N)=O (some centres not stated) | 3.99 ×10⁻⁶ cm/s |  | 40% | 15% |  |
| CCCCCCCCCCC(NC(=O)[C@@H](N)CCC(=O)O)C(=O)N[C@@H](Cc1c[nH]c2ccccc12)C(N)=O (some centres not stated) | 4.66 ×10⁻⁶ cm/s |  | 40% |  |  |
| CCCCCCCCCCC(N)C(=O)NC(CCCCCCCCCC)C(=O)N[C@@H](CCC(=O)O)C(=O)N[C@@H](Cc1c[nH]c2ccccc12)C(N)=O (some centres not stated) (H-[ξGly(decyl)][ξGly(decyl)]EW-NH2) | 3.09 ×10⁻⁶ cm/s | Not Active | 90% |  |  |
| CCCCCCC(N)C(=O)NC(CCCCCC)C(=O)N[C@@H](CCC(=O)O)C(=O)N[C@@H](Cc1c[nH]c2ccccc12)C(N)=O (some centres not stated) (H-[ξAoc(2)][ξAoc(2)]EW-NH2) | 8.32 ×10⁻⁶ cm/s | Not Active | 90% |  |  |
| CCCCCCCCC(N)C(=O)NC(CCCCCCCC)C(=O)N[C@@H](CCC(=O)O)C(=O)N[C@@H](Cc1c[nH]c2ccccc12)C(N)=O (some centres not stated) (H-[ξGly(octyl)][ξGly(octyl)]EW-NH2) | 1.79 ×10⁻⁶ cm/s | Not Active | 40% | 15% |  |
| NC(=O)[C@H](Cc1c[nH]c2ccccc12)NC(=O)[C@@H](N)CCC(=O)O (H-Glu-Trp-NH2) | 7.76 ×10⁻⁶ cm/s |  | 35% |  |  |
| CCCCCCCCC(N)C(=O)N[C@@H](CCC(=O)O)C(=O)N[C@@H](Cc1c[nH]c2ccccc12)C(N)=O (some centres not stated) | 1.55 ×10⁻⁶ cm/s |  | 40% |  |  |
| CCCCCCCCCCCCC(N)C(=O)N[C@@H](CCC(=O)O)C(=O)N[C@@H](Cc1c[nH]c2ccccc12)C(N)=O (some centres not stated) | 1.02 ×10⁻⁶ cm/s |  | 65% |  | 75% |
| CCCCCCCCCCC(N)C(=O)N[C@@H](CCC(=O)O)C(=O)N[C@@H](Cc1c[nH]c2ccccc12)C(N)=O (some centres not stated) | 9.26 ×10⁻⁶ cm/s |  | 65% |  | 75% |
| CCCCCCC(N)C(=O)N[C@@H](CCC(=O)O)C(=O)N[C@@H](Cc1c[nH]c2ccccc12)C(N)=O (stereo partly drawn) (H-[ξAoc(2)]-Glu-Trp-NH2) | 4.84 ×10⁻⁶ cm/s |  | 40% |  |  |
| CCCCCCC(NC(=O)[C@@H](N)CCC(=O)O)C(=O)N[C@@H](Cc1c[nH]c2ccccc12)C(N)=O (some centres not stated) (H-Glu-[ξAoc(2)]-Trp-NH2) | 3.83 ×10⁻⁶ cm/s |  | 40% |  |  |
